From patent US6509361B1, “1,5-Diaryl substituted pyrazoles as p38 kinase inhibitors” (Pharmacia Corporation, priority 2001, dated 2003)

Key:
human p38 kinase alpha = target: T1, human p38 kinase alpha (Homo sapiens, UniProt Q16539); assay: p38 Kinase Assay (in vitro; PHAS-I/32P-ATP format or EGFRP/33P-ATP format); format: biochemical; conditions: activated human p38 kinase alpha, 50 μM unlabeled ATP; table does not say which of the two assay formats
T1 construct: The coding region of the human p38a cDNA was obtained by PCR-amplification from RNA isolated from the human monocyte cell line THP.1; GST (N); made in house; host or cells: E. coli DH10B
T1 sequence (Q16539 whole entry): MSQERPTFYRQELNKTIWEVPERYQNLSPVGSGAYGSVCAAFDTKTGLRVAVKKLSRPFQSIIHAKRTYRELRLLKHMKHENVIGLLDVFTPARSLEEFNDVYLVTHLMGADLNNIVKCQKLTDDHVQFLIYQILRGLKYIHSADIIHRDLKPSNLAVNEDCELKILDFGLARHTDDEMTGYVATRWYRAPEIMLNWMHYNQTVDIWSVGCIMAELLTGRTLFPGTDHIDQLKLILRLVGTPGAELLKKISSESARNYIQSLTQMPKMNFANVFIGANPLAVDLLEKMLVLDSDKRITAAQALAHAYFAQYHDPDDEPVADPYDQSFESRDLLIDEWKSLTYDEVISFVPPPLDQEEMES
Procedure: The coding region of the human p38a cDNA was obtained by PCR-amplification from RNA isolated from the human monocyte cell line THP.1. First strand cDNA was synthesized from total RNA as follows: 2 μg of RNA was annealed to 100 ng of random hexamer primers in a 10 μl reaction by heating to 70° C. for 10 minutes followed by 2 minutes on ice. cDNA was then synthesized by adding 1 μl of RNAsin (Promega, Madison Wis.), 2 μl of 50 mM dNTP's, 4 μl of 5×buffer, 2 μl of 100 mM DTT and 1 μl (200 U) of Superscript II™ […] reverse transcriptase. Random primer, dNTP's and Superscript™ reagents were all purchased from Life-Technologies, Gaithersburg, Mass. The reaction was incubated at 42° C. for 1 hour. Amplification of p38 cDNA was performed by aliquoting 5 μl of the reverse transcriptase reaction into a 100 μl PCR reaction containing the following: 80 μl dH2O, 2 μl 50 mM dNTP's, 1 μl each of forward and reverse primers (50 pmol/μl), 10 μl of 10× buffer and 1 μl Expand™ polymerase (Boehringer Mannheim). The PCR primers incorporated Bam HI sites onto the 5′ and 3′ end of the amplified fragment, and were purchased from Genosys. The forward and reverse primers were 5′-[…]-3′ and 5′[…]-3′, respectively. The PCR amplification was carried out in a DNA Thermal Cycler (Perkin Elmer) by repeating 30 cycles of 94° C. for 1 minute, 60° C. for 1 minute and 68° C. for 2 minutes. After amplification, excess primers and unincorporated dNTP's were removed from the amplified fragment with a Wizard™ PCR prep (Promega) and digested with Bam HI (New England Biolabs). The Bam HI digested fragment was ligated into BamHI digested pGEX 2T plasmid DNA (PharmaciaBiotech) using T-4 DNA ligase (New England Biolabs) as described by T. Maniatis, Molecular Cloning: A Laboratory Manual, 2nd ed. (1989). The ligation reaction was transformed into chemically competent E. coli DH10B cells purchased from Life-Technologies following the manufacturer's instructions. Plasmid DNA was isolated from the resulting bacterial colonies using a Promega Wizard™ miniprep kit. Plasmids containing the appropriate Bam HI fragment were sequenced in a DNA Thermal Cycler (Perkin Elmer) with Prism™ (Applied Biosystems Inc.). cDNA clones were identified that coded for both human p38a isoforms (Lee et al. Nature 372, 739). One of the clones which contained the cDNA for p38a-2 (CSBP-2) inserted in the cloning site of pGEX 2T, 3′ of the GST coding region was designated pMON 35802. The sequence obtained for this clone is an exact match of the cDNA clone reported by Lee et al. This expression plasmid allows for the production of a GST-p38a fusion protein.
Expression of Human p38a:
GST/p38a fusion protein was expressed from the plasmid pMON 35802 in E. coli, stain DH10B (Life Technologies, Gibco-BRL). Overnight cultures were grown in Luria Broth (LB) containing […] ampicillin. The next day, 500 ml of fresh LB was inoculated with 10 ml of overnight culture, and grown in a 2 liter flask at 37° C. with constant shaking until the culture reached an absorbance of 0.8 at 600 nm. Expression of the fusion protein was induced by addition of isopropyl b-D-thiogalactosidse (IPTG) to a final concentration of 0.05 mM. The cultures were shaken for three hours at room temperature, and the cells were harvested by centrifugation. The cell pellets were stored frozen until protein purification.
Purification of p38 Kinase-α:
All chemicals were from Sigma Chemical Co. unless noted. Twenty grams of E. coli cell pellet collected from five 1 L shake flask fermentations was resuspended in a volume of PBS (140 mM NaCl, 2.7 mM KCl, 10 mM Na2HPO4, 1.8 mM KH2PO4, pH 7.3) up to 200 ml. The cell suspension was adjusted to 5 mM DTT with 2 M DTT and then split equally into five 50 ml Falcon conical tubes. The cells were sonnicated (Ultrasonics model W375) with a 1 cm probe for 3×1 minutes (pulsed) on ice. […]

[1] = test system: TNF-a (LPS-stimulated human peripheral blood mononuclear cells); assay: TNF Cell Assay: LPS stimulation of human PBM cells, TNF-a by ELISA; format: cell-based; conditions: PBMC, LPS 20 ng/ml, overnight 37° C., compound 10-0.41 μM
Procedure: Method of Isolation of Human Peripheral Blood Mononuclear Cells:
Human whole blood was collected in Vacutainer tubes containing EDTA as an anticoagulant. A blood sample (7 ml) was carefully layered over 5 ml PMN Cell Isolation Medium (Robbins Scientific) in a 15 ml round bottom centrifuge tube. The sample was centrifuged at 450-500×g for 30-35 minutes in a swing out rotor at room temperature. After centrifugation, the top band of cells were removed and washed 3 times with PBS w/o calcium or magnesium. The cells were centrifuged at 400×g for 10 minutes at room temperature. The cells were resuspended in Macrophage Serum Free Medium (Gibco BRL) at a concentration of 2 million cells/ml.
LPS Stimulation of Human PBMS:
PBM cells (0.1 ml, 2 million/ml) were co-incubated with 0.1 ml compound (10-0.41 μM, final concentration) for 1 hour in flat bottom 96 well microtiter plates. Compounds were dissolved in DMSO initially and diluted in TCM for a final concentration of 0.1% DMSO. LPS (Calbiochem, 20 ng/ml, final concentration) was then added at a volume of 0.010 ml. Cultures were incubated overnight at 37° C. Supernatants were then removed and tested by ELISA for TNF-a and IL1-b. Viability was analyzed using MTS. After 0.1 ml supernatant was collected, 0.020 ml MTS was added to remaining 0.1 ml cells. The cells were incubated at 37° C. for 2-4 hours, then the O.D. was measured at […].

[2] = test system: TNF-α released by U937 cells (human histiocytic lymphoma cell line); assay: U937 Cell Assay: LPS stimulation of TNF production by U937 cells, ELISA; format: cell-based; conditions: U-937, differentiated U937 cells, LPS 100 ng/ml, 4 hour incubation
Procedure: Maintenance and Differentiation of the U937 Human Histiocytic Lymphoma Cell Line:
U937 cells (ATCC) were propagated in RPMI 1640 containing 10% fetal bovine serum, 100 IU/ml penicillin, 100 μg/ml streptomycin, and 2 mM glutamine (Gibco). Fifty million cells in 100 ml media were induced to terminal monocytic differentiation by 24 hour incubation with 20 ng/ml phorbol 12-myristate 13-acetate (Sigma). The cells were washed by centrifugation (200×g for 5 min) and resuspended in 100 ml fresh medium. After 24-48 hours, the cells were harvested, centrifuged, and resuspended in culture medium at 2 million cells/ml.
LPS Stimulation of TNF Production by U937 Cells:
U937 cells (0.1 ml, 2 million/ml) were incubated with 0.1 ml compound (0.004-50 μM, final concentration) for 1 hour in 96 well microtiter plates. Compounds were prepared as 10 mM stock solutions in DMSO and diluted in culture medium to yield a final DMSO concentration of 0.1% in the cell assay. LPS (E. coli, 100 ng/ml final concentration) was then added at a volume of 0.02 ml. After 4 hour incubation at 37° C., the amount of TNF-α released in the culture medium was quantitated by ELISA. Inhibitory potency is expressed as IC50 (μM).

| Structure (SMILES) | IC50 (human p38 kinase alpha) [µM] | IC50 [1] [µM] | IC50 [2] [µM] | melting point [°C] |
| --- | --- | --- | --- | --- |
| Cc1cccc(-n2nc(C)cc2-c2ccnc(C#N)c2)c1 [Example 31, 2-Cyano-4-[1-(3-methylphenyl)-3 methyl-1H-pyrazol-5-yl]pyridine] | 0.5 | 1.7 | 1.65 | 128 to 130 |
| Cc1cccc(-n2nc(C)cc2-c2ccnc(NCCc3ccccc3)c2)c1 [Example 24, 2-(Phenylethylamino)-4-[1-(3-methylphenyl)-3-methyl-1H-pyrazol-5-yl]pyridine] | < 0.01 | 0.02 | 0.05 | 86 to 87 |
| Cc1cccc(-n2nc(C)cc2-c2cc[nH]c(=O)c2)c1 [Example 23, 4-[1-(3-Methylphenyl)-3-methyl-1H-pyrazol-5-yl]-2-pyridone] | 9.55 | 2.4 | ≥ 10 | 182 to 183 |
| Cc1cnn(-c2ccc(F)cc2)c1-c1ccncc1 [Example 1] | 16.8 | 0.1 | ≥ 10 | 135.86 |
| Fc1ccc(-n2nccc2-c2ccnc(NCc3ccccc3)c2)cc1 [Example 29, 2-(Benzylamino)-4-[1-(4-fluorophenyl)-1H-pyrazol-5-yl]pyridine] | 0.129 | 1.3 | 0.24 |  |
| Fc1ccc(-n2nccc2-c2ccnc(Cl)c2)cc1 [Example 45, 2-Chloro-4-[1-(4-fluorophenyl)-1H-pyrazol-5-yl]pyridine] | 1.06 | 8.1 | ≥ 10 |  |
| Cc1cccc(-n2nc(C)cc2-c2ccnc(N(C)C)c2)c1 [Example 35, 2-(Dimethylamino)-4-[1-(3-methylphenyl)-3-methyl-1H-pyrazol-5-yl]pyridine] | 1.15 | 3.4 | ≥ 10 | 84 to 85 |
| Cc1cccc(-n2nc(C)cc2-c2ccnc(NCCO)c2)c1 [Example 26, 2-(2-Hydroxyethylamino)-4-[1-(3-methylphenyl)-3-methyl-1H-pyrazol-5-yl]pyridine] | 0.156 | 0.1 | 0.21 |  |
| CNc1cc(-c2cc(C)nn2-c2ccc(C)cc2)ccn1 [Example 9] | 0.29 | 0.1 | 17.9 | 126.34 |
| Cc1cc(-c2ccnc(C#N)c2)n(-c2ccc(F)cc2)n1 [Example 32, 2-Cyano-4-[1-(4-fluorophenyl)-3-methyl-1H-pyrazol-5-yl]pyridine] | 2.97 | > 10 | > 10 | 94 to 95 |
| Cc1cc(-c2ccnc(NCCc3ccccc3)c2)n(-c2ccc(Cl)cc2)n1 [Example 13] | 0.05 | 0.1 | 0.86 |  |
| Cc1cc(-c2ccnc(NCCO)c2)n(-c2ccc(Cl)cc2)n1 [Example 11] | 0.07 | 0.1 | 0.48 | 137.57 |
| COc1cc(-c2cc(C)nn2-c2cccc(C)c2)ccn1 [Example 22, 2-Methoxy-4-[1-(3-methylphenyl)-3-methyl-1H-pyrazol-5-yl]pyridine] | 0.079 | 1.9 | 1.31 |  |
| Cc1cccc(-n2nc(C)cc2-c2ccnc(N(C)Cc3ccccc3)c2)c1 [Example 27, 2-(N-Methylbenzylamino)-4-[1-(3-methylphenyl)-3-methyl-1H-pyrazol-5-yl]pyridine] | > 100 | > 10 | ≥ 10 |  |
| CCNc1cc(-c2ccncc2)n(-c2ccc(F)cc2)n1 [Example 15] | > 100 | > 10 | ≥ 10 |  |
| Cc1cccc(-n2nc(C)cc2-c2ccnc(OCc3ccccc3)c2)c1 [Example 28, 2-Bezyloxy-4-[1-(3-methylphenyl)-3-methyl-1H-pyrazol-5-yl]pyridine] | 0.843 | > 10 | 2.64 |  |
| Cc1cc(-c2ccnc(NCc3ccccc3)c2)n(-c2ccc(Cl)cc2)n1 [Example 12] | 0.003 | 0.3 | 0.2 | 105.53 |
| Cc1cccc(-n2ncc(C)c2-c2ccncc2)c1 [Example 3] | 4.9 | 0.6 | 0.66 | 141.77 |
| CCNc1cc(-c2cc(C)nn2-c2ccc(C)cc2)ccn1 [Example 8] | 0.07 | 0.2 | 0.72 | 97.15 |
| NC(=O)c1cnn(-c2ccc(F)cc2)c1-c1ccncc1 [Example 16, 1-(4-Fluorophenyl)-5-(4-pyridinyl)-1H-pyrazole-4-carboxamide] | 7.72 | > 10 | > 10 | 215 to 216 |
